In patent publication US20050004186A1, “MEK inhibiting compounds” (Pfizer Inc, priority 2002, published 2005):
pIC50: −log10 of the molar value. Counter-ions that a name gives are not always drawn.

Columns and labels:
MEK = assay: Cellular assay for measuring MEK inhibition, C26CPA1 (inhibition of ERK phosphorylation in C26 cells); type: cell-based, murine; conditions: for C26CPA1 % Inhibition @ 0.1 μM / C26CPA1 % Inhibition @ 1 μM: C26 cells
Procedure: Cellular Assay for Measuring MEK Inhibition
MEK inhibitors were evaluated by determining their ability to inhibit phosphorylation of MAP kinase (ERK) in murine colon 26 (C26) carcinoma cells. Since ERK1 and ERK2 represent the only known substrates for MEK1 and MEK2, the measurement of inhibition of ERK phosphorylation in cells provides direct read out of cellular MEK inhibition by the compounds of the invention. Detection of phosphorylation of ERK was carried out either by Western blot or ELISA format. Briefly, the assays involve treatment of exponentially growing C26 cells with varying concentrations of the test compound (or vehicle control) for one hour at 37≡ C. For Western blot assay, cells were rinsed free of compound/vehicle and lysed in a solution containing 70 mM NaCl, 50 mM glycerol phosphate, 10 mM HEPES, […], 1% Triton X-100, 1 mM Na3VO4, 100 μM PMSF, 10 μM leupeptin and 10 μM pepstatin. Supernatants were then subjected to gel electrophoresis and hybridized to a primary antibody recognizing dually phosphorylated ERK1 and ERK2. To evaluate total MAPK levels, blots were subsequently ‘stripped’ and re-probed with a 1:1 mixture of polyclonal antibodies recognizing unphosphorylated ERK1 and ERK2. For pERK ELISA assay, pERK TiterZyme Enzyme immunometric Assay kits were acquired from Assay Designs, Inc (Ann Arbor, Mich.). Briefly, cells were harvested in lysis solution containing 50 mM β-glycerophosphate, 10 mM HEPES, pH7.4, 70 mM NaCl, 2 mM EDTA and 1% SDS and protein lysates were diluted 1:15 with supplied Assay buffer prior to the execution of the assay. The subsequent steps were carried out essentially as recommended by the manufacturer.

Row | Compound | melting point | further results
1 | CN(C)CCCN(C)c1nnc(-c2ccc(F)c(F)c2Nc2ccc(I)cc2F)o1 (as salt: hydrochloride) [Example 12, N-{5-[3,4-Difluoro-2-(2-fluoro-4-iodo-phenylamino)-phenyl]-[1,3,4]oxadiazol-2-yl}-N,N′,N′-trimethyl-propane-1,3-diamine] | 123 to 126 °C | 
2 | Fc1cc(I)ccc1Nc1c(-c2nnc(NCCN3CCCCC3)o2)ccc(F)c1F (as salt: hydrochloride) [Example 13, {5-[3,4-Difluoro-2-(2-fluoro-4-iodo-phenylamino)-phenyl]-[1,3,4]oxadiazol-2-yl}-(2-piperidin-1-yl-ethyl)-amine] | 191 to 193 °C | 
3 | NCCCCNc1nnc(-c2ccc(F)c(F)c2Nc2ccc(I)cc2F)o1 (as salt: hydrochloride) [Example 14, N′1′-{5-[3,4-Difluoro-2-(2-fluoro-4-iodo-phenylamino)-phenyl]-[1,3,4]oxadiazol-2-yl}-butane-1,4-diamine] | 157 to 159 °C | 
4 | NCCCNc1nnc(-c2ccc(F)c(F)c2Nc2ccc(I)cc2F)o1 (as salt: hydrochloride) [Example 15, N′1′-{5-[3,4-Difluoro-2-(2-fluoro-4-iodo-phenylamino)-phenyl]-[1,3,4]oxadiazol-2-yl}-propane-1,3-diamine] | 173 to 176 °C | 
5 | CN(C)CCCNc1nnc(-c2ccc(F)c(F)c2Nc2ccc(I)cc2F)o1 (as salt: hydrochloride) [Example 16, N-{5-[3,4-Difluoro-2-(2-fluoro-4-iodo-phenylamino)-phenyl]-[1,3,4]oxadiazol-2-yl}-N′,N′-dimethyl-propane-1,3-diamine] | 168 to 170 °C | 
6 | CN(C)CCNc1nnc(-c2ccc(F)c(F)c2Nc2ccc(I)cc2F)o1 (as salt: hydrochloride) [Example 17, N-{5-[3,4-Difluoro-2-(2-fluoro-4-iodo-phenylamino)-phenyl]-[1,3,4]oxadiazol-2-yl}-N′,N′-dimethyl-ethane-1,2-diamine] | 184 to 187 °C | 
7 | CNCCNc1nnc(-c2ccc(F)c(F)c2Nc2ccc(I)cc2F)o1 (as salt: hydrochloride) [Example 18, N-{5-[3,4-Difluoro-2-(2-fluoro-4-iodo-phenylamino)-phenyl]-[1,3,4]oxadiazol-2-yl}-N′-methyl-ethane-1,2-diamine] | 173 to 175 °C | 
8 | NCCNc1nnc(-c2ccc(F)c(F)c2Nc2ccc(I)cc2F)o1 (as salt: salt) [Example 11, N′1′-{5-[3,4-Difluoro-2-(2-fluoro-4-iodo-phenylamino)-phenyl]-[1,3,4]oxadiazol-2-yl}-ethane-1,2-diamine] | 156 to 158 °C | 
9 | CCc1ccc(Nc2c(-c3nnc(N(C)CCc4ccccn4)o3)ccc(F)c2F)c(F)c1 [Example 127, {5-[2-(4-Ethyl-2-fluoro-phenylamino)-3,4-difluoro-phenyl]-1,3,4-oxadiazol-2-yl}-methyl-(2-pyridin-2-yl-ethyl)-amine] |  | C26CPA1 % Inhibition @ 0.1 μM (MEK): 0%; C26CPA1 % Inhibition @ 1 μM (MEK): 0%
10 | CCc1ccc(Nc2c(-c3nnc(NCC(c4cccnc4)N4CCOCC4)o3)ccc(F)c2F)c(F)c1 (stereo not drawn) [Example 128, {5-[2-(4-Ethyl-2-fluoro-phenylamino)-3,4-difluoro-phenyl]-1,3,4-oxadiazol-2-yl}-(2-morpholin-4-yl-2-pyridin-3-yl-ethyl)-amine] |  | C26CPA1 % Inhibition @ 0.1 μM (MEK): 0%; C26CPA1 % Inhibition @ 1 μM (MEK): 0%
11 | CCc1ccc(Nc2c(-c3nnc(NC(C)Cc4ccsc4)o3)ccc(F)c2F)c(F)c1 (stereo not drawn) [Example 137, {5-[2-(4-Ethyl-2-fluoro-phenylamino)-3,4-difluoro-phenyl]-1,3,4-oxadiazol-2-yl}-(1-methyl-2-thiophen-3-yl-ethyl)-amine] |  | C26CPA1 % Inhibition @ 0.1 μM (MEK): 72.1%; C26CPA1 % Inhibition @ 1 μM (MEK): 85.3%
12 | CNCCNc1nnc(-c2ccc(F)c(F)c2Nc2ccc(CCO)cc2F)o1 [Example 167, 2-(4-{2,3-difluoro-6-[5-(2-methylamino-ethylamino)-1[1,3,4]oxadiazol-2-yl]-phenylamino}-3-fluoro-phenyl)-ethanol] |  | pIC50 (MEK; murine colon 26 (C26) carcinoma cells, one hour at 37 C): 6.04
